Earlier results as cited in patent US12357614B2, “L-ergothioneine-containing composition” (NAGASE & CO., LTD., priority 2020, dated 2025).

How the values were obtained:
[1] = test system: mouse bone marrow-derived macrophages; conditions: 10 mM EGT, toll-like receptor ligand stimulation
[2] = test system: Escherichia coli; conditions: EGT at 5 mM and 50 mM
[3] = test system: OT-II CD4^+ T cells; conditions: 30 mM EGT, co-culture with F4/80 macrophages

SMILES: C[N+](C)(C)[C@@H](Cc1c[nH]c(=S)[nH]1)C(=O)[O-] [EGT, N,N,N-trimethyl-L-2-thiohistidine]
- production of cytokines (IL-6, IL-12p40, IL-1β, IL-10) [1]: promoted
- growth of Escherichia coli [2]: suppresses the growth of Escherichia coli
- Th17 polarization of OT-II CD4^+ T cells [3]: promoted
